From publication PMC6635429, “A 4-cyano-3-methylisoquinoline inhibitor of Plasmodium falciparum growth targets the sodium efflux pump PfATP4” (Scientific Reports, 2019)

Key:
Type in all cases: biochemical
PfATP4 [1] = target: T1, PfATP4 (Plasmodium falciparum, UniProt A0A143ZZK9); assay: cipargamin-sensitive Na+-dependent ATPase activity (Pi release) in parasite membranes
T1 construct: gene ATP4; native PfATP4 in P. falciparum membrane preparations (3D7)

PfATP4 [2] = target: T1, PfATP4; assay: cipargamin-sensitive Na+-dependent ATPase activity (Pi release) in parasite membranes; resistance mutation S374R
PfATP4 [3] = target: T2, PfATP4 (Plasmodium falciparum, UniProt A0A143ZZK9, S374R); assay: cipargamin-sensitive Na+-dependent ATPase activity (Pi release) in membranes of resistant parasites
T2 construct: gene ATP4; PfATP4 S374R in membranes from B7 parasites
T2 sequence (A0A143ZZK9 1-1264 S374R): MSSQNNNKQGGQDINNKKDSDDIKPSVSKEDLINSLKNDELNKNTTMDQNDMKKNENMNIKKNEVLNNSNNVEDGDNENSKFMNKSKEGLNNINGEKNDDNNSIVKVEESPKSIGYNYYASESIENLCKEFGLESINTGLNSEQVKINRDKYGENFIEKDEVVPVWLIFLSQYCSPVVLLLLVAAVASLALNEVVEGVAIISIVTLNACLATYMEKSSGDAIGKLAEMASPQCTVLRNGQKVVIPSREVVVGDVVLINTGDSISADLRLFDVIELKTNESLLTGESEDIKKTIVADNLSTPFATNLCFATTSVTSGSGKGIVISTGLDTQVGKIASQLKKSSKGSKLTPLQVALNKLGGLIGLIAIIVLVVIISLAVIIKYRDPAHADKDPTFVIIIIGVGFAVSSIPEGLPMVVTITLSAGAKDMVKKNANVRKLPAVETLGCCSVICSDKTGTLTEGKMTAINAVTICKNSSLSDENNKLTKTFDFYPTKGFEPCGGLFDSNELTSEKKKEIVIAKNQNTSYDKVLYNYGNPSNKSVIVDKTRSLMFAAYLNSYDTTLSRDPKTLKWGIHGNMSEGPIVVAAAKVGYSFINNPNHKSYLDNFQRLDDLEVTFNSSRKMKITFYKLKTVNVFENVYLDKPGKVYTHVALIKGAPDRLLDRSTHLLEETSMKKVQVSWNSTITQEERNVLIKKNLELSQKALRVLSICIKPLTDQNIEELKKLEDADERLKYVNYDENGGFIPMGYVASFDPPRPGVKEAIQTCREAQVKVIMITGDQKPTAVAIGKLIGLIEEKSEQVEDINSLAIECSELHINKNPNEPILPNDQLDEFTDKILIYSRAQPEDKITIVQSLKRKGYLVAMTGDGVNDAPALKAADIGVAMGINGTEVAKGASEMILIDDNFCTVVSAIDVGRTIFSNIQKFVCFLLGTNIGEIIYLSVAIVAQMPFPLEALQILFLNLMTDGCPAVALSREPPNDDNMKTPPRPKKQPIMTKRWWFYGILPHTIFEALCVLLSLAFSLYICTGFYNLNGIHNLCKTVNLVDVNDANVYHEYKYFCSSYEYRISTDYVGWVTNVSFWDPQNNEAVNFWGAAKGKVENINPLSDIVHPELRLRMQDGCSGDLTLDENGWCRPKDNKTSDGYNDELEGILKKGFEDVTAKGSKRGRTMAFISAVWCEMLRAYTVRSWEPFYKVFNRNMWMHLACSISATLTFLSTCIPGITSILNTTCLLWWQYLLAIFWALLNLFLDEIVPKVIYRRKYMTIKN

Structure (SMILES)	IC50 (PfATP4 [1])	IC50 (PfATP4 [2])	IC50 (PfATP4 [3])
Cc1nc(N[C@@H](C)c2ccccc2)c2ccccc2c1C#N [MB10]	62 ± 9 nM		
CCC(CC)Nc1nc(C)c(C#N)c2ccccc12 [MB14, 3-methyl-1-(1-ethylpropylamino)isoquinoline-4-carbonitrile]		52 ± 16 nM	429 ± 73 nM
